Earlier results on 1 compound are cited in patent US20220378706A1, “PHARMACEUTICAL COMPOSITION COMPRISING PDE9 INHIBITOR” (Eisai R&D Management Co., Ltd., priority 2017, published 2022).

In this data set the test system is CSF cGMP. The note with it: healthy subjects, 40 mg; cited from earlier work.

Take `C[C@@H]1CN(Cc2ncccn2)C[C@H]1c1nc2c(cnn2C2CCOCC2)c(=O)[nH]1` [PF 04447943]: the “CSF cGMP elevation” value is listed as “CSF cGMP elevation was demonstrated”.
